# Data taken from PMC11420776 (RSC Advances, 2024).
# “Also recorded” adds a separate entry of the source.
# How the values were obtained:
# HOP-62 (NSC lung cancer) = test: NCI 60-cell one-dose antiproliferative screen; format: cell-based, human; settings: one dose 10 μM
# 786-0 (renal cancer) = test: NCI 60-cell one-dose antiproliferative screen; format: cell-based, human; settings: one dose 10 μM
# IGROV1 (ovarian cancer) = test: NCI 60-cell one-dose antiproliferative screen; format: cell-based, human; settings: one dose 10 μM
# RPMI-8226 (leukemia) = test: NCI 60-cell one-dose antiproliferative screen; format: cell-based, human; settings: one dose 10 μM
# SNB-75 (CNS cancer) = test: NCI 60-cell one-dose antiproliferative screen; format: cell-based, human; settings: one dose 10 μM
# KM12 (colon cancer) = test: NCI 60-cell one-dose antiproliferative screen; format: cell-based, human; settings: one dose 10 μM
# SNB-19 (CNS cancer) = test: NCI 60-cell one-dose antiproliferative screen; format: cell-based, human; settings: one dose 10 μM
# CAKI-1 (renal cancer) = test: NCI 60-cell one-dose antiproliferative screen; format: cell-based, human; settings: one dose 10 μM
# OVCAR-5 (ovarian cancer) = test: NCI 60-cell one-dose antiproliferative screen; format: cell-based, human; settings: one dose 10 μM
# [1] = system: A549/ATCC (NSC lung cancer); test: NCI 60-cell one-dose antiproliferative screen; format: cell-based, human; settings: one dose 10 μM
# [2] = system: breast cancer cell line MCF7; test: MTT cytotoxicity assay, MCF7; format: cell-based, human
# EKVX (NSC lung cancer) = test: NCI 60-cell one-dose antiproliferative screen; format: cell-based, human; settings: one dose 10 μM
# MDA-MB-435 (melanoma) = test: NCI 60-cell one-dose antiproliferative screen; format: cell-based, human; settings: one dose 10 μM
# M14 (melanoma) = test: NCI 60-cell one-dose antiproliferative screen; format: cell-based, human; settings: one dose 10 μM
# PC-3 (prostate cancer) = test: NCI 60-cell one-dose antiproliferative screen; format: cell-based, human; settings: one dose 10 μM
# UO-31 (renal cancer) = test: NCI 60-cell one-dose antiproliferative screen; format: cell-based, human; settings: one dose 10 μM
# COLO-205 (colon cancer) = test: NCI 60-cell one-dose antiproliferative screen; format: cell-based, human; settings: one dose 10 μM
# Pim-1 kinase = Pim-1 kinase (Homo sapiens, UniProt P11309); test: Pim-1 kinase inhibition assay; format: biochemical
# Sequence of Pim-1 kinase (P11309 whole entry): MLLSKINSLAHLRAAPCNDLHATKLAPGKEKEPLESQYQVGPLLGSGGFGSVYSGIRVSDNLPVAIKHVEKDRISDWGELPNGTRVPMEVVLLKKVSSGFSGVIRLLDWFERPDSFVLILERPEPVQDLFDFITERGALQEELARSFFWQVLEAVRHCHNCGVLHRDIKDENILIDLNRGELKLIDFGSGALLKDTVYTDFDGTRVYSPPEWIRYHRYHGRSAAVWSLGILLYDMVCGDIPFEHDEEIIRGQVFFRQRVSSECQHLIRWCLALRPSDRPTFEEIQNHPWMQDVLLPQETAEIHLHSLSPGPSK
# OVCAR-3 (ovarian cancer) = test: NCI 60-cell one-dose antiproliferative screen; format: cell-based, human; settings: one dose 10 μM
# HS 578T (breast cancer) = test: NCI 60-cell one-dose antiproliferative screen; format: cell-based, human; settings: one dose 10 μM
# HCC-2998 (colon cancer) = test: NCI 60-cell one-dose antiproliferative screen; format: cell-based, human; settings: one dose 10 μM
# p-PI3K = test: Phosphorylated PI3K ELISA in MCF7 cells; format: cell-based, human; settings: 4g at its IC50 0.56 μM, compared to untreated MCF7 cells
# MCF7 cells [3] = test: Annexin V/PI dual staining apoptosis assay; format: cell-based, human; settings: MCF7, 24 h, 4g at IC50 (0.56 μM)
# ACHN (renal cancer) = test: NCI 60-cell one-dose antiproliferative screen; format: cell-based, human; settings: one dose 10 μM
# MCF7 cells [4] = test: Cell cycle analysis by flow cytometry; format: cell-based, human
# UACC-62 (melanoma) = test: NCI 60-cell one-dose antiproliferative screen; format: cell-based, human; settings: one dose 10 μM
# SK-MEL-2 (melanoma) = test: NCI 60-cell one-dose antiproliferative screen; format: cell-based, human; settings: one dose 10 μM
# MALME-3M (melanoma) = test: NCI 60-cell one-dose antiproliferative screen; format: cell-based, human; settings: one dose 10 μM
# [5] = system: MDA-MB-468 (breast cancer); test: NCI 60-cell one-dose antiproliferative screen; format: cell-based, human; settings: one dose 10 μM
# TK-10 (renal cancer) = test: NCI 60-cell one-dose antiproliferative screen; format: cell-based, human; settings: one dose 10 μM
# SN12C (renal cancer) = test: NCI 60-cell one-dose antiproliferative screen; format: cell-based, human; settings: one dose 10 μM
# SF-268 (CNS cancer) = test: NCI 60-cell one-dose antiproliferative screen; format: cell-based, human; settings: one dose 10 μM
# OVCAR-8 (ovarian cancer) = test: NCI 60-cell one-dose antiproliferative screen; format: cell-based, human; settings: one dose 10 μM
# [6] = system: NCI-H226 (NSC lung cancer); test: NCI 60-cell one-dose antiproliferative screen; format: cell-based, human; settings: one dose 10 μM
# SK-MEL-28 (melanoma) = test: NCI 60-cell one-dose antiproliferative screen; format: cell-based, human; settings: one dose 10 μM
# [7] = system: NCI-H23 (NSC lung cancer); test: NCI 60-cell one-dose antiproliferative screen; format: cell-based, human; settings: one dose 10 μM
# DU-145 (prostate cancer) = test: NCI 60-cell one-dose antiproliferative screen; format: cell-based, human; settings: one dose 10 μM
# HOP-92 (NSC lung cancer) = test: NCI 60-cell one-dose antiproliferative screen; format: cell-based, human; settings: one dose 10 μM
# T-47D (breast cancer) = test: NCI 60-cell one-dose antiproliferative screen; format: cell-based, human; settings: one dose 10 μM
# HCT-15 (colon cancer) = test: NCI 60-cell one-dose antiproliferative screen; format: cell-based, human; settings: one dose 10 μM
# SF-539 (CNS cancer) = test: NCI 60-cell one-dose antiproliferative screen; format: cell-based, human; settings: one dose 10 μM
# [8] = system: 60 human tumor cell lines; test: NCI 60-cell one-dose antiproliferative screen, whole panel; format: cell-based; settings: Homo sapiens, 60 cell, read-out: Mean inhibition (mean GI%)
# c-Met kinase = c-Met kinase (Homo sapiens, UniProt P08581); test: c-Met kinase inhibition assay; format: biochemical
# Sequence of c-Met kinase (P08581 25-1390): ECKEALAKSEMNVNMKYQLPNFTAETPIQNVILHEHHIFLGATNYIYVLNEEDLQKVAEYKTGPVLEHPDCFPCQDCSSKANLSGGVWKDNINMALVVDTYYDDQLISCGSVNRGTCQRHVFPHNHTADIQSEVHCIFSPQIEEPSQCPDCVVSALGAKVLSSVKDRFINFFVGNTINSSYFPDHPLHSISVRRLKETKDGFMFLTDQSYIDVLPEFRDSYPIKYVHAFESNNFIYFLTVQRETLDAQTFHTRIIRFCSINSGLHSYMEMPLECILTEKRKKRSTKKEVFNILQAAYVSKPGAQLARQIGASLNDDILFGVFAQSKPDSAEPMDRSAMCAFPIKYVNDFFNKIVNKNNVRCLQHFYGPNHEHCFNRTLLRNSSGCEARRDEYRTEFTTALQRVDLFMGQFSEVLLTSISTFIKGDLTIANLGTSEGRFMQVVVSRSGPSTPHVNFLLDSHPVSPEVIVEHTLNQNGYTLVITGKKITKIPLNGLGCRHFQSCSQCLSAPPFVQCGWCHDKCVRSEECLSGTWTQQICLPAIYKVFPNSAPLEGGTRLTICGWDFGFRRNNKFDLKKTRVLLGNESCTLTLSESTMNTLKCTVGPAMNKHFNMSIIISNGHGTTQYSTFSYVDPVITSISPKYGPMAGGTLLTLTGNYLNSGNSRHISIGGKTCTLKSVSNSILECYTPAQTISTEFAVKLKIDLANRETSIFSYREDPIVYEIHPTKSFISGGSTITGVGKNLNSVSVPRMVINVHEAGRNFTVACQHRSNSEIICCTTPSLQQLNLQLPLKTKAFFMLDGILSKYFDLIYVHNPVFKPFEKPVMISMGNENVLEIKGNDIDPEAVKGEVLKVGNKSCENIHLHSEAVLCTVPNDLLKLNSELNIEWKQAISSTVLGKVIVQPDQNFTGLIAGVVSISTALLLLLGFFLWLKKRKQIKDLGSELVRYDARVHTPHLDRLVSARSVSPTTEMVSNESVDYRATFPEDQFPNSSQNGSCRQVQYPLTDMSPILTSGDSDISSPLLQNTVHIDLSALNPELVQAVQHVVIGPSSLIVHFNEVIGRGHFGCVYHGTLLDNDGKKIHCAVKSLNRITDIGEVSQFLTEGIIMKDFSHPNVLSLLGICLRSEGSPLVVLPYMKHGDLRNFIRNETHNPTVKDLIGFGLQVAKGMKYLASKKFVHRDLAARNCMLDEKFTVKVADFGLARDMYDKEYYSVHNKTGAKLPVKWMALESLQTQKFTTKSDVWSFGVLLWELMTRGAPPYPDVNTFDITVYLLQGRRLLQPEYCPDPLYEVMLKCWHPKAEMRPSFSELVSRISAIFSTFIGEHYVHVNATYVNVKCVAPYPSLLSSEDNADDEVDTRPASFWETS
# HT29 (colon cancer) = test: NCI 60-cell one-dose antiproliferative screen; format: cell-based, human; settings: one dose 10 μM
# OVCAR-4 (ovarian cancer) = test: NCI 60-cell one-dose antiproliferative screen; format: cell-based, human; settings: one dose 10 μM
# SK-OV-3 (ovarian cancer) = test: NCI 60-cell one-dose antiproliferative screen; format: cell-based, human; settings: one dose 10 μM
# [9] = MCF7, 4g at IC50 (0.56 μM), 24 h
# [10] = MCF7, 4g at IC50 (0.56 μM), relative to DMSO control
smiles,measurement,setting,value
"COc1ccc(-c2nnc3ccc(NN=Cc4ccc(O)cc4)nn23)cc1 [Compound 4g, 4-((2-(3-(4-Methoxyphenyl)-[1,2,4]triazolo[4,3-b]pyridazin-6-yl)hydrazono)methyl)phenol]",GI%,HOP-62 (NSC lung cancer),— (— GI% is below 15%)
same,GI%,786-0 (renal cancer),77.10%
same,GI%,IGROV1 (ovarian cancer),60.66%
same,GI%,RPMI-8226 (leukemia),86.88%
same,GI%,SNB-75 (CNS cancer),46.38%
same,GI%,KM12 (colon cancer),71.51%
same,GI%,SNB-19 (CNS cancer),32.46%
same,GI%,CAKI-1 (renal cancer),78.54%
same,GI%,OVCAR-5 (ovarian cancer),— (— GI% is below 15%)
same,GI%,[1],41.49%
same,IC50,"[2]; Homo sapiens, MCF7, 72 h, read-out: Cytotoxicity IC50 MCF7",560 ± 30 nM
same,Selectivity index,[2]; IC50 on normal cells (MCF10a) / IC50 on cancer cells (MCF7),19.11
same,GI%,EKVX (NSC lung cancer),62.20%
same,GI%,MDA-MB-435 (melanoma),54.20%
same,GI%,M14 (melanoma),43.64%
same,GI%,PC-3 (prostate cancer),59.52%
same,GI%,UO-31 (renal cancer),69.74%
same,GI%,COLO-205 (colon cancer),43.51%
same,IC50,Pim-1 kinase,283 ± 10 nM
same,GI%,OVCAR-3 (ovarian cancer),62.40%
same,GI%,HS 578T (breast cancer),53.18%
same,GI%,HCC-2998 (colon cancer),85.07%
same,inhibition of PI3K phosphorylation,p-PI3K,55.5%
same,Apoptosis Early,MCF7 cells [3],25.16%
same,Apoptosis Late,MCF7 cells [3],18.13%
same,Necrosis,MCF7 cells [3],5.27%
same,increase in the percentage of total apoptosis,MCF7 cells [3]; compared to the control,29.61 fold
same,GI%,ACHN (renal cancer),56.52%
same,%G0-G1,MCF7 cells [4]; [9],52.94%
same,%G2/M,MCF7 cells [4]; [9],4.13%
same,drop in the cell population at G0/G1 phase,MCF7 cells [4]; [10],10.48%
same,drop in the cell population at G2/M phase,MCF7 cells [4]; [10],46.84%
same,increase in the proportion of cells in the S phase,"MCF7 cells [4]; MCF7, 4g at IC50 (0.56 μM), versus control (DMSO)",1.29 fold
same,cell cycle arrest phase,MCF7 cells [4]; MCF7 cells,arrest in the S stage of the cell cycle; also recorded: arrest in the proliferation of MCF7 cells in the S phase; also recorded: ceased the proliferation of MCF-7 cancer cells in the S phase
same,GI%,UACC-62 (melanoma),41.19%
same,GI%,SK-MEL-2 (melanoma),26.79%
same,GI%,MALME-3M (melanoma),35.83%
same,GI%,[5],51.76%
same,GI%,TK-10 (renal cancer),61.05%
same,GI%,SN12C (renal cancer),57.71%
same,GI%,SF-268 (CNS cancer),64.19%
same,GI%,OVCAR-8 (ovarian cancer),54.60%
same,GI%,[6],22.48%
same,GI%,SK-MEL-28 (melanoma),30.86%
same,GI%,[7],67.47%
same,GI%,DU-145 (prostate cancer),48.11%
same,GI%,HOP-92 (NSC lung cancer),68.67%
same,GI%,T-47D (breast cancer),54.64%
same,GI%,HCT-15 (colon cancer),73.30%
same,GI%,SF-539 (CNS cancer),63.61%
same,inhibition at 10 µM,[8],55.8%
same,IC50,c-Met kinase,163 ± 10 nM
same,GI%,HT29 (colon cancer),— (— GI% is below 15%)
same,GI%,OVCAR-4 (ovarian cancer),52.11%
same,GI%,SK-OV-3 (ovarian cancer),— (— GI% is below 15%)
